Experimental findings from patent publication US20190038597A1, “PREVENTION OF VASCULAR AND CARDIAC FIBROSIS VIA IRE1ALPHA INHIBITION” (McMaster University, priority 2017, published 2019) are described below.

Each structure is given as a SMILES string.

Assay [1] deals with SHR/L-NAME model of hypertension. Kind of assay: Collagen content / fibrosis of vessels in L-NAME-treated SHRs. As to conditions: 18 days. In kind it is in vivo, rat. Here is the method: 12-14 week old male SHRs were randomized to receive vehicle, L-NAME (50 mg/L) or L-NAME and 4μ8c (2.5 mg/kg/day i.p.) for 18 days. Aortas and carotid arteries were removed at sacrifice for mechanical and structural analysis. (A) Picro-Sirius Red staining of aorta and carotid artery sections (B) Determination of soluble collagen content in aorta and carotid arteries by Picro-Sirius Red-based assay. Stress-strain curves (C,E), elastic modulus-stress lines (D,F) and the slope of the elastic modulus-stress lines (G,H) were calculated. Data is presented as mean±SEM. *, p<0.05 vs. NT; #, p<0.05 vs. L-NAME. N≥4 per group; 2-5 segments of the thoracic aorta were analyzed per animal. In C to F, lines of best fit are bound by 95% confidence intervals (dotted lines). *, p<0.05.
12-14 week old male SHRs were used to determine the effect of pharmacological IRE1α inhibition on L-NAME-induced vascular stiffening. They were maintained on a 12-hour light-dark cycle with rat chow and water ad libitium. Animals were implanted with radio-telemetry devices (Data Science International, St. Paul, Minn., USA) one week before the start of the study. […]
The wet weight of aortic tissues was determined. […]
Tissues were fixed in 4% paraformaldehyde and subsequently embedded in paraffin. […] Collagen area density was calculated by dividing the PSR-stained area by the total area of the vessel.

Assay [2] concerns primary rat renal fibroblasts. Kind of assay: Picro-Sirius Red assay of collagen production in renal fibroblasts. Type of assay: cell-based. Particulars: AA2P, TGF-β1, 72 h co-treatment, FIG. 3. The method, then:
Rat renal fibroblasts were treated with L-ascorbic acid-2-phosphate, TGF-β1 and 4μ8c for 72 h. Collagen production was measured by a Picro-Sirius Red assay. **, p<0.01.
VSMCs were isolated from the aortas of 5-week old WKY rats using the explant method^29. The thoracic aorta was removed from the animal and placed in ice-cold 5× Antibiotics-Antimycotics solution (ThermoFisher). The adventitia was gently removed and the aorta was cut longitudinally. The endothelial layer was removed by gentle scraping with forceps. The aorta was cut into 3 mm^2 squares and placed on a 6 well plate in DMEM/F12 medium containing 10% fetal bovine serum (FBS). Explants were incubated undisturbed in a 5% CO2 incubator at 37° C. for 1 week and then passaged. Sprague-Dawley renal fibroblasts were purchased (Cell Biologics) and cultured in low glucose DMEM/F12 medium containing 10% FBS, streptomycin (100 μgimp, and penicillin (100 U/ml, Invitrogen, Burlington, ON). Cells between passages 5 and 10 were used for experiments. Cells were cultured in medium containing 1% FBS overnight before treatment.
Collagen synthesis was measured using a Picro-Sirius Red-based assay as previously described^30. Briefly, cells cultured on a 96 well plate were fixed in methanol for 10 minutes at −20° C. […] Absorbance at 540 nm was measured using a Spectramax Plus Microplate Reader (Molecular Devices). […]

As for `Cc1cc(=O)oc2c(C=O)c(O)ccc12` [4μ8c, 7-Hydroxy-4-methyl-2-oxo-2H-chromene-8-carbaldehyde], in assay [1] (L-NAME+4μ8c group, PSR-based colorimetric assay), the “Collagen content in homogenized aortic tissue” value was determined as 47.10±2.88 μg/mg tissue. For the same compound, the “fibrosis and vascular stiffness in the hypertensive animals” value in assay [1] (SHR/L-NAME, 4μ8c 2.5 mg/kg/day i.p.) is given as “reduced”. The “collagen levels in response to TGF-β1” value in assay [2] was “reduced”.
